Test results from ChEMBL document CHEMBL3044986, “Synthesis of 1-(4-aminosulfonylphenyl)-3,5-diarylpyrazoline derivatives as potent antiinflammatory and antimicrobial agents” (2012).
Converted amounts (≈) assume the structure as drawn. The source made the active and inactive calls. The calls are words filed in the database; no cut-off is given here.

Key:
Rattus norvegicus [1] = test: Anti-inflammatory activity in Rattus norvegicus Wistar albino (rat) assessed as inhibition of carrageenan-induced paw edema at 4 mg/kg, ip administered 30 min prior to carrageenan-challenge measured at 4 hr by plethysmometric analysis relative to control; format: functional; conditions: route intraperitoneal
Rattus norvegicus [2] = test: Anti-inflammatory activity in Rattus norvegicus Wistar albino (rat) assessed as inhibition of carrageenan-induced paw edema at 4 mg/kg, ip administered 30 min prior to carrageenan-challenge measured at 2 hr by plethysmometric analysis relative to control; format: functional; conditions: route intraperitoneal
Rattus norvegicus [3] = test: Anti-inflammatory activity in Rattus norvegicus Wistar albino (rat) assessed as inhibition of carrageenan-induced paw edema at 4 mg/kg, ip administered 30 min prior to carrageenan-challenge measured at 3 hr by plethysmometric analysis relative to control; format: functional; conditions: route intraperitoneal
Rattus norvegicus [4] = test: Anti-inflammatory activity in Rattus norvegicus Wistar albino (rat) assessed as inhibition of carrageenan-induced paw edema at 4 mg/kg, ip administered 30 min prior to carrageenan-challenge measured at 1 hr by plethysmometric analysis relative to control; format: functional; conditions: route intraperitoneal
Saccharomyces cerevisiae [5] = test: Antifungal activity against Saccharomyces cerevisiae MTCC 170 after 24 hr by modified agar well diffusion assay; format: functional
Pseudomonas aeruginosa = test: Antibacterial activity against Pseudomonas aeruginosa MTCC 741 at 4 mg/ml after 24 hr by agar well diffusion assay; format: functional, organism-based
Candida albicans [6] = test: Antifungal activity against Candida albicans MTCC 227 after 24 hr by modified agar well diffusion assay; format: functional
Bacillus subtilis [7] = test: Antibacterial activity against Bacillus subtilis MTCC 121 after 24 hr by modified agar well diffusion assay; format: functional; conditions: MTCC 121, 24 h
Rattus norvegicus [8] = test: Anti-inflammatory activity in Rattus norvegicus Wistar albino (rat) assessed as inhibition of carrageenan-induced paw edema at 50 mg/kg, po administered 30 min prior to carrageenan-challenge measured at 1 hr by plethysmometric analysis relative to control; format: functional
Bacillus subtilis [9] = test: Antibacterial activity against Bacillus subtilis MTCC 121 at 4 mg/ml after 24 hr by agar well diffusion assay; format: functional; conditions: MTCC 121, 24 h, read-out: DIZ
Escherichia coli = test: Antibacterial activity against Escherichia coli MTCC 1652 at 4 mg/ml after 24 hr by agar well diffusion assay; format: functional, organism-based
Rattus norvegicus [10] = test: Anti-inflammatory activity in Rattus norvegicus Wistar albino (rat) assessed as inhibition of carrageenan-induced paw edema at 50 mg/kg, po administered 30 min prior to carrageenan-challenge measured at 3 hr by plethysmometric analysis relative to control; format: functional
Candida albicans [11] = test: Antifungal activity against Candida albicans MTCC 227 at 4 mg/ml after 24 hr by agar well diffusion assay; format: functional; conditions: for zone of inhibition at 4000 µg/mL: MTCC 227, 24 h, read-out: DIZ
Rattus norvegicus [12] = test: Anti-inflammatory activity in Rattus norvegicus Wistar albino (rat) assessed as inhibition of carrageenan-induced paw edema at 50 mg/kg, po administered 30 min prior to carrageenan-challenge measured at 2 hr by plethysmometric analysis relative to control; format: functional
Staphylococcus aureus [13] = test: Antibacterial activity against Staphylococcus aureus MTCC 96 at 4 mg/ml after 24 hr by agar well diffusion assay; format: functional; conditions: MTCC 96, 24 h, read-out: DIZ
Rattus norvegicus [14] = test: Anti-inflammatory activity in Rattus norvegicus Wistar albino (rat) assessed as inhibition of carrageenan-induced paw edema at 50 mg/kg, po administered 30 min prior to carrageenan-challenge measured at 4 hr by plethysmometric analysis relative to control; format: functional
Staphylococcus aureus [15] = test: Antibacterial activity against Staphylococcus aureus MTCC 96 after 24 hr by modified agar well diffusion assay; format: functional; conditions: MTCC 96, 24 h
Saccharomyces cerevisiae [16] = test: Antifungal activity against Saccharomyces cerevisiae MTCC 170 at 4 mg/ml after 24 hr by agar well diffusion assay; format: functional; conditions: for zone of inhibition at 4000 µg/mL: MTCC 170, 24 h, read-out: DIZ

SMILES	MIC (Saccharomyces cerevisiae [5]; MTCC 170, 24 h) [µg/mL]	Activity (Pseudomonas aeruginosa)	MIC (Candida albicans [6]; MTCC 227, 24 h) [µg/mL]	MIC (Bacillus subtilis [7]) [µg/mL]	inhibition in vivo at 50 mg/kg (Rattus norvegicus [8]) [%]	zone of inhibition at 4000 µg/mL (Bacillus subtilis [9]) [mm]	Activity (Escherichia coli)	inhibition in vivo at 50 mg/kg (Rattus norvegicus [10]) [%]	zone of inhibition at 4000 µg/mL (Candida albicans [11]) [mm]	inhibition in vivo at 50 mg/kg (Rattus norvegicus [12]) [%]	zone of inhibition at 4000 µg/mL (Staphylococcus aureus [13]) [mm]	inhibition in vivo at 50 mg/kg (Rattus norvegicus [14]) [%]	MIC (Staphylococcus aureus [15]) [µg/mL]	zone of inhibition at 4000 µg/mL (Saccharomyces cerevisiae [16]) [mm]	MIC (Saccharomyces cerevisiae [5])	MIC (Candida albicans [6])	diameter of the inhibition zone (DIZ) (Candida albicans [11])	diameter of the inhibition zone (DIZ) (Saccharomyces cerevisiae [16])	also measured
COc1ccc2c(c1)c(CC(=O)O)c(C)n2C(=O)c1ccc(Cl)cc1 [INDOMETHACIN]	–	–	–	–	–	–	–	–	–	–	–	–	–	–	–	–	–	–	inhibition in vivo at 4 mg/kg (Rattus norvegicus [1]): 74.7%; inhibition in vivo at 4 mg/kg (Rattus norvegicus [2]): 81.9%; inhibition in vivo at 4 mg/kg (Rattus norvegicus [3]): 77.2%; inhibition in vivo at 4 mg/kg (Rattus norvegicus [4]): 69.6%
COc1cc(OC)cc(C2CC(c3ccc(Cl)cc3)=NN2c2ccc(S(N)(=O)=O)cc2)c1 (centres undefined)	64 (≈ 136 µM)	inactive	> 256	> 256	11.6	13.6	inactive	46.1	12.6	26.8	12	46.4	> 256	16.3	–	–	–	–	–
C[C@@H]1[C@H](O)[C@@H](C)/C=C/C=C/C=C/C=C/C=C/C=C/C=C/[C@H](O[C@@H]2O[C@H](C)[C@@H](O)[C@H](N)[C@@H]2O)C[C@@H]2O[C@](O)(C[C@@H](O)C[C@@H](O)[C@H](O)CC[C@@H](O)C[C@@H](O)CC(=O)O[C@H]1C)C[C@H](O)[C@H]2C(=O)O [AMPHOTERICIN B]	100 (≈ 108 µM)	–	100 (≈ 108 µM)	–	–	–	–	–	14.3	–	–	–	–	13.6	–	–	–	–	–
COc1cc(OC)cc(C2CC(c3ccc(OC)cc3O)=NN2c2ccc(S(N)(=O)=O)cc2)c1 (centres undefined)	–	inactive	–	256 (≈ 529 µM)	31.9	14.3	inactive	62.8	–	57.5	13.3	50	256 (≈ 529 µM)	–	inactive	inactive	inactive	inactive	–
COc1ccc(C2CC(c3ccc(Cl)cc3)=NN2c2ccc(S(N)(=O)=O)cc2)c(OC)c1 (centres undefined)	64 (≈ 136 µM)	inactive	128 (≈ 271 µM)	64 (≈ 136 µM)	43.5	19.3	inactive	57.2	13.6	48.8	18.3	32.9	64 (≈ 136 µM)	16	–	–	–	–	–
COc1ccc(C2CC(c3ccc(Cl)cc3)=NN2c2ccc(S(N)(=O)=O)cc2)cc1OC (centres undefined)	–	inactive	–	128 (≈ 271 µM)	57.9	17.3	inactive	68.3	–	64.6	13.6	49.5	256 (≈ 542 µM)	–	inactive	inactive	inactive	inactive	–
COc1ccc(OC)c(C2CC(c3ccc(F)cc3)=NN2c2ccc(S(N)(=O)=O)cc2)c1 (centres undefined)	–	inactive	–	128 (≈ 281 µM)	50.7	15	inactive	48.3	–	30.7	13.6	41.7	256 (≈ 562 µM)	–	inactive	inactive	inactive	inactive	–
COc1cc(OC)cc(C2CC(c3ccc(F)cc3)=NN2c2ccc(S(N)(=O)=O)cc2)c1 (centres undefined)	–	inactive	–	256 (≈ 562 µM)	49.3	13.6	inactive	51.1	–	33.1	12.6	50	> 256	–	inactive	inactive	inactive	inactive	–
COc1ccc(C2=NN(c3ccc(S(N)(=O)=O)cc3)C(c3cccc(OC)c3OC)C2)c(O)c1 (centres undefined)	64 (≈ 132 µM)	inactive	128 (≈ 265 µM)	32 (≈ 66.2 µM)	47.8	20.6	inactive	45	14.3	25.2	18.6	43.8	64 (≈ 132 µM)	15.6	–	–	–	–	–
COc1ccc(C2=NN(c3ccc(S(N)(=O)=O)cc3)C(c3ccc(OC)cc3OC)C2)c(O)c1 (centres undefined)	–	inactive	–	64 (≈ 132 µM)	33.3	18.6	inactive	40.6	–	16.5	15.6	37.1	128 (≈ 265 µM)	–	inactive	inactive	inactive	inactive	–
COc1ccc(C2CC(c3ccc(F)cc3)=NN2c2ccc(S(N)(=O)=O)cc2)c(OC)c1 (centres undefined)	–	inactive	–	128 (≈ 281 µM)	63.7	16.3	inactive	47.7	–	35.4	15.3	47.9	128 (≈ 281 µM)	–	inactive	inactive	inactive	inactive	–
COc1ccc(C2CC(c3ccc(F)cc3)=NN2c2ccc(S(N)(=O)=O)cc2)cc1OC (centres undefined)	–	inactive	–	128 (≈ 281 µM)	62.3	15.3	inactive	62.8	–	53.5	14	53.1	256 (≈ 562 µM)	–	inactive	inactive	inactive	inactive	–
COc1cccc(C2CC(c3ccc(F)cc3)=NN2c2ccc(S(N)(=O)=O)cc2)c1OC (centres undefined)	64 (≈ 141 µM)	inactive	128 (≈ 281 µM)	64 (≈ 141 µM)	59.4	18.3	inactive	53.8	13.6	40.1	17.6	51.5	128 (≈ 281 µM)	15.6	–	–	–	–	–
O=C(O)c1cn(C2CC2)c2cc(N3CCNCC3)c(F)cc2c1=O [CIPROFLOXACIN]	–	–	–	5 (≈ 15.1 µM)	–	24	–	–	–	–	26.6	–	5 (≈ 15.1 µM)	–	–	–	–	–	–
COc1ccc(OC)c(C2CC(c3ccc(Cl)cc3)=NN2c2ccc(S(N)(=O)=O)cc2)c1 (centres undefined)	32 (≈ 67.8 µM)	inactive	128 (≈ 271 µM)	64 (≈ 136 µM)	14.5	18.6	inactive	58.9	14.3	48.8	15.3	45.4	128 (≈ 271 µM)	17.6	–	–	–	–	–
COc1cccc(C2CC(c3ccc(Cl)cc3)=NN2c2ccc(S(N)(=O)=O)cc2)c1OC (centres undefined)	32 (≈ 67.8 µM)	inactive	64 (≈ 136 µM)	128 (≈ 271 µM)	18.8	15	inactive	46.1	15.3	35.4	13.6	27.8	256 (≈ 542 µM)	17.3	–	–	–	–	–
